Source: patent US9079895B2, “Morpholino compounds, uses and methods” (University of Dundee, priority 2012, dated 2015)

Assays:
Settings in all cases: average of at least two experiments
5HT6 receptor = 5HT6 receptor (Homo sapiens (Human), UniProt P50406); assay: Secondary radioligand binding assay, 5HT6; parameters: key: “—” indicates that a binding interaction was not detected;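 also: competition displacement of radioligand from membranes of transfected cell lines expressing the receptor, 1.5 h at room temperature, bound radioactivity counted by scintillation after filtration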
Procedure: (§2) The 250 μl reactions are incubated at room temperature and shielded from light (to prevent photolysis of light-sensitive ligands) for 1.5 hours, then harvested by rapid filtration onto Whatman GF/B glass fiber filters pre-soaked with 0.3% polyethyleneimine using a 96-well Brandel harverster. Four rapid 500 μl washes are performed with chilled Standard Binding Buffer to reduce non-specific binding. Filters are placed in 6 ml scintillation tubes and allowed to dry overnight. The next day, 4 ml of EcoScint scintillation cocktail (National Diagnostics) are added to each tube. The tubes are capped, labeled, and counted by liquid scintillation counting. […] The filter mats are dried, then scintillant is melted onto the filters and the radioactivity retained on the filters is counted in a Microbeta scintillation counter.

5HT5 receptor = 5HT5 receptor (Homo sapiens (Human), UniProt P47898); assay: Secondary radioligand binding assay, 5HT5; parameters: key: “—” indicates that a binding interaction was not detected;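 also: competitive radioligand displacement on membranes from transfected cell lines, incubated at room temperature in the dark, filter-retained radioactivity counted by liquid scintillation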
Procedure: as §2

5HT3 receptor = 5HT3 receptor (Homo sapiens (Human), UniProt P46098); assay: Secondary radioligand binding assay, 5HT3; parameters: key: “—” indicates that a binding interaction was not detected;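 also: radioligand competition binding on membranes from transfected cell lines, 1.5 h incubation at room temperature, filter-retained radioactivity measured by liquid scintillation counting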
Procedure: as §2

[1] = target: Alpha1A adrenergic receptor (Homo sapiens (Human), UniProt P35348); assay: Secondary radioligand binding assay, Alpha1A; parameters: key to Ki Alpha1A: “—” indicates that a binding interaction was not detected
Description: (§1) 1. Secondary Radioligand Binding Assays The detailed experimental protocols for the radioligand and functional receptor assays are available on the NIMH PDSP website at http://pdsp.med.unc.edu/UNC-CH %20Protocol %20Book.pdf. Raw data (dpm) representing total radioligand binding (i.e. specific+non-specific binding) are plotted as a function of the logarithm of the molar concentration of the competitor (i.e. test or reference compound). […] C. Adrenergic Receptors: α1A, α1B, α2A, α2B, α2C, β1, β2, β3 Assay Buffers: For α1 receptors, α1 Binding Buffer (20 mM Tris-HCl, 145 mM NaCl, pH 7.4); for α2 receptors, α2 Binding Buffer (50 mM Tris-HCl, 5 mM MgCl2, pH 7.7); for β receptors, β Binding Buffer (50 mM Tris-HCl, 3 mM MnCl2, pH 7.7) Membrane Fraction Source: Transiently or stably transfected cell lines (e.g. HEK293, COS, CHO, NIH3T3) Protocol adapted from Arango et al. […] (1990), Gen. Psychiatry, 47: 1038-1047. The method is carried out in the manner described for the serotonin receptor assay above, except where described below. Eleven dilutions (5× assay concentration) of the test and reference (see Table 20) compounds are prepared in the appropriate buffer by serial dilution, as previously described. Radioligand is diluted to five times the assay concentration (see Table 21) in the appropriate buffer. […] Four rapid 500-μl washes are performed with chilled distilled water (for α1 and β receptors) or 0.1% polyethyleneimine (for α2 receptors) to reduce non-specific binding. Filters are placed in 6 ml scintillation tubes and allowed to dry overnight and the samples are treated to obtain data as described above. [table]

5HT4 receptor = 5HT4 receptor (Homo sapiens (Human), UniProt Q13639); assay: Secondary radioligand binding assay, 5HT4; parameters: key: “—” indicates that a binding interaction was not detected
Procedure: 1. Secondary Radioligand Binding Assays The detailed experimental protocols for the radioligand and functional receptor assays are available on the NIMH PDSP website at http://pdsp.med.unc.edu/UNC-CH %20Protocol %20Book.pdf. Assay Buffer: Standard Binding Buffer (50 mM Tris-HCl, 10 mM MgCl2, 1 mM EDTA, pH 7.4) Membrane Fraction Source: Transiently or stably transfected cell lines (e.g., HEK293, COS, CHO, NIH3T3) Protocol adapted from Roth et al. (1986), J. Pharmacol. Exp. Ther., 238(2): 480-485; and Roth et al. (1994), J. Pharmacol. Exp. Ther., 268(3): 1403-1410. […] A similar stock of a reference compound (positive control) is also prepared. […] Radioligand is diluted to five times the assay concentration (see Table 18) in Standard Binding Buffer. Typically, the assay concentration of radioligand is a value between one half the KD and the KD of a particular radioligand at its target. 50 μl aliquots of radioligand are dispensed into the wells of a 96-well plate containing 100 μl of Standard Binding Buffer. Then, duplicate 50 μl aliquots of the test and reference compound dilutions are added. Finally, crude membrane fractions of cells expressing recombinant target (prepared from 10 cm plates by harvesting PBS-rinsed monolayers, resuspending and lysing in chilled, hypotonic 50 mM Tris-HCl, pH 7.4, centrifuging at 20,000×g, decanting the supernatant and storing at −80° C.; typically, one 10 cm plate provides sufficient material for 24 wells), are resuspended in 3 ml of chilled Standard Binding Buffer and homogenized by several passages through a 26 gauge needle, then 50 μl are dispensed into each well. […] Four rapid 500 μl washes are performed with chilled Standard Binding Buffer to reduce non-specific binding. Filters are placed in 6 ml scintillation tubes and allowed to dry overnight. The next day, 4 ml of EcoScint scintillation cocktail (National Diagnostics) are added to each tube. The tubes are capped, labeled, and counted by liquid scintillation counting. For higher throughput assays, bound radioactivity is harvested onto 0.3% polyethyleneimine-treated, 96-well filter mats using a 96-well Filtermate harvester. The filter mats are dried, then scintillant is melted onto the filters and the radioactivity retained on the filters is counted in a Microbeta scintillation counter. Raw data (dpm) representing total radioligand binding (i.e. specific+non-specific binding) are plotted as a function of the logarithm of the molar concentration of the competitor (i.e. test or reference compound).

[2] = target: Alpha1B adrenergic receptor (Homo sapiens (Human), UniProt P35368); assay: Secondary radioligand binding assay, Alpha1B; parameters: key to Ki Alpha1B: “—” indicates that a binding interaction was not detected
Description: as §1

5HT1e receptor = 5HT1e receptor (Homo sapiens (Human), UniProt P28566); assay: Secondary radioligand binding assay, 5HT1e; parameters: key: “—” indicates that a binding interaction was not detected;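 also: competition binding against a radioligand on membranes from transfected cell lines, 1.5 h at room temperature, bound radioactivity counted by liquid scintillation after filtration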
Procedure: as §2

5HT2b receptor = 5HT2b receptor (Homo sapiens (Human), UniProt P41595); assay: Secondary radioligand binding assay, 5HT2b; parameters: key to Ki 5HT2b: “—” indicates that a binding interaction was not detected;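 also: competition binding against a radioligand on membranes from transfected cell lines, 1.5 h incubation at room temperature, filter-retained radioactivity counted by liquid scintillation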
5HT2b receptor, sequence (P41595 whole entry): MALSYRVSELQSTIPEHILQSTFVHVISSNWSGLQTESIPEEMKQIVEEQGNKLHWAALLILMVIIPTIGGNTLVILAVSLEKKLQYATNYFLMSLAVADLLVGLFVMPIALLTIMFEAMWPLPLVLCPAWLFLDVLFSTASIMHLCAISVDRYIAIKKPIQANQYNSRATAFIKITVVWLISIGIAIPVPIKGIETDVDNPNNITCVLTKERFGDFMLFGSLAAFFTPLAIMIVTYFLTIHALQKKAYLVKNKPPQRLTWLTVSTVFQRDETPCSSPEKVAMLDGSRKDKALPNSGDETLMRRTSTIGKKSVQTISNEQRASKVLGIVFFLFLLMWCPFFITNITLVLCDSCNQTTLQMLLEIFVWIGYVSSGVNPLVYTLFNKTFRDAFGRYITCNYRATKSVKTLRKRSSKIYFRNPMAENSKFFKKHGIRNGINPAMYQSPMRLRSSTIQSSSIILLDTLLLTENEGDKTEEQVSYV
Procedure: as §2

5HT6 receptor, sequence (P50406 whole entry): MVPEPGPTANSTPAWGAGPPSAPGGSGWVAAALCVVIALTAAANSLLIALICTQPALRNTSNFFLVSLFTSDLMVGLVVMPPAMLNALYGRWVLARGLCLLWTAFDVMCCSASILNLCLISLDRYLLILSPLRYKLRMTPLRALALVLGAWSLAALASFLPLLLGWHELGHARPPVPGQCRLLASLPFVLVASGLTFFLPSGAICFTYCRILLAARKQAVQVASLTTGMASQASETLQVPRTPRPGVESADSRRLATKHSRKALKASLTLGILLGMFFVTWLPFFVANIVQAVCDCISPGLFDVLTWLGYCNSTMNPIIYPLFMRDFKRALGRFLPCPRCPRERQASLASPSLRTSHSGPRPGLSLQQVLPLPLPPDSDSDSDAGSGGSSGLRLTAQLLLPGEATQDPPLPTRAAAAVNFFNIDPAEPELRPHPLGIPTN
Alpha1B adrenergic receptor, sequence (P35368 whole entry): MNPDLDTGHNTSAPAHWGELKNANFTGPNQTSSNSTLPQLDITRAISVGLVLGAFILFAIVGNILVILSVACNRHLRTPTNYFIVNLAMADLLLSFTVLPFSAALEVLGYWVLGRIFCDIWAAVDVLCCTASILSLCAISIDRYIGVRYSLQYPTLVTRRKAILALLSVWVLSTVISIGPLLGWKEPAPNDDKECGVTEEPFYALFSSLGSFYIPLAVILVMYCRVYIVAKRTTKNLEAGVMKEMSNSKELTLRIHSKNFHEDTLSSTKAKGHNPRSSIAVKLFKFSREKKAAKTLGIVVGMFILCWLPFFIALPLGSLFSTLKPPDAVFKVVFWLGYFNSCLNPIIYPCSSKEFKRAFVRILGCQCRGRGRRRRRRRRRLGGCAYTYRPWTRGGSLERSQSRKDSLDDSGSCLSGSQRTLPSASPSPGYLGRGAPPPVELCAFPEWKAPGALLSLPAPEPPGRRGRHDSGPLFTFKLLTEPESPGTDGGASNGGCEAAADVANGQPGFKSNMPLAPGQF
5HT5 receptor, sequence (P47898 whole entry): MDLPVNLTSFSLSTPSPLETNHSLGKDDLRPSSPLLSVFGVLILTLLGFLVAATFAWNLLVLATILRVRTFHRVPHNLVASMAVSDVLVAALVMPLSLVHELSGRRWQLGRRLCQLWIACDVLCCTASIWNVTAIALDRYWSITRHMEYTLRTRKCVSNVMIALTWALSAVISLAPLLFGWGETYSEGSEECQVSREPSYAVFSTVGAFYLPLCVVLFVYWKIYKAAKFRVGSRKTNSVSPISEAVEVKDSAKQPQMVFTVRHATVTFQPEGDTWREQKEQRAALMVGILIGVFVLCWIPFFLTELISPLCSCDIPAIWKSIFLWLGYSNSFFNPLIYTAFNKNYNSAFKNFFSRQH
5HT1e receptor, sequence (P28566 whole entry): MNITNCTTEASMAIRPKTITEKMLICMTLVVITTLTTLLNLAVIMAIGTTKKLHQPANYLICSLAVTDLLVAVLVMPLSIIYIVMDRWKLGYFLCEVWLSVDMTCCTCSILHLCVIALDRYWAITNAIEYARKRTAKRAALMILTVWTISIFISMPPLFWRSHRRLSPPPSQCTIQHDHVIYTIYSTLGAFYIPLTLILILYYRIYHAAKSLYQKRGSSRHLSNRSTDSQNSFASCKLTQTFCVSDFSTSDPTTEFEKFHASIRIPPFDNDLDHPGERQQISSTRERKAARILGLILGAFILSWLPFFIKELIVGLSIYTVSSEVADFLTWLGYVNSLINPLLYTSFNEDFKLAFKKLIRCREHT
5HT4 receptor, sequence (Q13639 whole entry): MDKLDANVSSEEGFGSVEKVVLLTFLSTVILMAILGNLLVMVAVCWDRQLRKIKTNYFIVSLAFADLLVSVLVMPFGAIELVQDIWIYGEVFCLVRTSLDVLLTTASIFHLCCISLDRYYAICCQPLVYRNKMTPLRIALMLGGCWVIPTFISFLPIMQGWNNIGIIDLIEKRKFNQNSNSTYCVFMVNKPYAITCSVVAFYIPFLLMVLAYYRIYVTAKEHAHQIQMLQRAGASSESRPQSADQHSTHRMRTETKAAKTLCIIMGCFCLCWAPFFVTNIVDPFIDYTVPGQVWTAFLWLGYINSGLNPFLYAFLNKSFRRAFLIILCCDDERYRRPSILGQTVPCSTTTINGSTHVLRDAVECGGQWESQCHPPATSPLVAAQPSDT
5HT3 receptor, sequence (P46098 24-478): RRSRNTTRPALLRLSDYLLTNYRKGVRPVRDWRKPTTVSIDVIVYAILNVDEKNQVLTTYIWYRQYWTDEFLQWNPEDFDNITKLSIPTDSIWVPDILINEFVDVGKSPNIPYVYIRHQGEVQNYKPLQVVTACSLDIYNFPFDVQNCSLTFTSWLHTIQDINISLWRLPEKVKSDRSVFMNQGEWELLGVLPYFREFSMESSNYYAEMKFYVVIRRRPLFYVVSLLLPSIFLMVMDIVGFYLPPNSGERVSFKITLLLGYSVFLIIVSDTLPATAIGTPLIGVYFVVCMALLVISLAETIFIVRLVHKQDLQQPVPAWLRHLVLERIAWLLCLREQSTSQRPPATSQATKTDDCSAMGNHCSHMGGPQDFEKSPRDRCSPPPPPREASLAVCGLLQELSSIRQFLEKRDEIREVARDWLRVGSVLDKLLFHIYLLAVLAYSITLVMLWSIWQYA
Alpha1A adrenergic receptor, sequence (P35348 whole entry): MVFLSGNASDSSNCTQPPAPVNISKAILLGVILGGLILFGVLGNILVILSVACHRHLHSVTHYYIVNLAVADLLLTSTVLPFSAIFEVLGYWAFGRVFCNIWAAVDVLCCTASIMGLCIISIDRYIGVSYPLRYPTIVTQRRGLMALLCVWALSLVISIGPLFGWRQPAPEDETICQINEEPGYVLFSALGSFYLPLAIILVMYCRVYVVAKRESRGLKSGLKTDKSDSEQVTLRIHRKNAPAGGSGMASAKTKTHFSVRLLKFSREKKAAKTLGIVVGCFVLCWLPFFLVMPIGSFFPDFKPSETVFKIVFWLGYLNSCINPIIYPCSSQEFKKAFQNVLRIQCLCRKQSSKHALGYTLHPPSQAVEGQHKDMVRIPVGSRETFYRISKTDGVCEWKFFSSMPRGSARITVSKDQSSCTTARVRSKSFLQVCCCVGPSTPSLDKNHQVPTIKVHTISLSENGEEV

Structure (SMILES)	Ki 5HT6 (5HT6 receptor)	Ki 5HT5 (5HT5 receptor)	Ki 5HT3 (5HT3 receptor)	Ki Alpha1A [1]	Ki 5HT4 (5HT4 receptor)	Ki Alpha1B [2]	Ki 5HT1e (5HT1e receptor)	Ki 5HT2b (5HT2b receptor)	Ki (5HT2b receptor) [nM]	Ki [1] [nM]	Ki [2] [nM]
Cc1ncccc1OC[C@@H]1CN(CC(=O)N2c3ccccc3C[C@H]2C)CCO1 [Compound 61]	—	—	—	—	—	—	—	—			
c1ccc(OC[C@H]2CN(CCN3CCc4ccccc43)CCO2)nc1 [Compound 15r, (R)-4-(2-(Indolin-1-yl)ethyl)-2-((pyridin-2-yloxy)methyl)morpholine]	—	—	—	—	—	—	—		600		
Cc1ncccc1OC[C@H]1CN(CCN2CCc3ccccc32)CCO1 [Compound 26r, (R)-4-(2-(Indolin-1-yl)ethyl)-2-(((2-methylpyridin-3-yl)oxy)methyl)morpholine]	—	—	—	—	—	—	—		3170		
c1ccc(OC[C@@H]2CN(CCN3CCc4ccccc43)CCO2)cc1 [Compound 19s, (S)-4-(2-(Indolin-1-yl)ethyl)-2-(phenoxymethyl)morpholine]	—	—	—		—		—		1440	2720	7210
c1cncc(OC[C@@H]2CN(CCN3CCc4ccccc43)CCO2)c1 [Compound 21s, (S)-4-(2-(Indolin-1-yl)ethyl)-2-((pyridin-3-yloxy)methyl)morpholine]	—	—	—	—	—	—	—	—			
O=C(CN1CCO[C@@H](COc2cccc(Cl)c2)C1)N1CCc2ccccc21 [Compound 22r, (R)-2-(2-((3-chlorophenoxy)methyl)morpholino)-1-(indolin-1-yl)ethanone]	—	—	—	—	—	—	—		2360		
CC1Cc2ccccc2N1C(=O)CN1CCO[C@H](COc2cccc(Cl)c2)C1 (some centres unmarked) [Compound 64]	—	—	—	—	—	—	—		441		
CC1Cc2ccccc2N1C(=O)CN1CCO[C@@H](COc2ccncc2)C1 (some centres unmarked) [Compound 68]	—	—	—	—	—	—	—	—			
Cc1ncccc1OC[C@@H]1CN(CCN2CCc3ccccc32)CCO1 [Compound 26s, (S)-4-(2-(Indolin-1-yl)ethyl)-2-(((2-methylpyridin-3-yl)oxy)methyl)morpholine]	—	—	—	—	—	—	—	—			
Cc1ccnc(OC[C@H]2CN(CCN3CCc4ccccc43)CCO2)c1 [Compound 17r, (R)-4-(2-(Indolin-1-yl)ethyl)-2-(((4-methylpyridin-2-yl)oxy)methyl)morpholine]	—	—	—	—	—	—	—		788		
Cc1ccnc(OC[C@H]2CN(CC(=O)N3CCc4ccccc43)CCO2)c1 [Compound 16r]	—	—	—	—	—	—	—	—			
CC1Cc2ccccc2N1C(=O)CN1CCO[C@@H](COc2ccccn2)C1 (some centres unmarked) [Compound 69]	—	—	—	—	—	—	—	—			
Cc1ncccc1OC[C@@H]1CN(CC(=O)N2c3ccccc3CC2C)CCO1.Cl (some centres unmarked) [Compound 60]	—	—	—	—	—	—	—		4610		
